The values that follow come from the supplement of paper PMC12592484.

Holding throughout (assay): drug sensitivity score (DSS2, normalised partial AUC of dose-response, 72 h CellTiter-Glo viability) (DSS (dimensionless)); higher = more sensitive (stronger growth inhibition / cytotoxicity); extreme values may be limits of the assay
In one experiment the test system is CAF#7 (primary prostate cancer-associated fibroblasts of myCAF-like type). The procedure, abridged:
(§1)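 Low-passage primary prostate cancer-associated fibroblasts, PF179T, WPMY-1, LNCaP and 22Rv1 cells were seeded into 384-well plates carrying pre-dispensed compounds at five doses covering a 10,000-fold range. After 72 h, viability was read by CellTiter-Glo 2.0 luminescence. Responses were scaled to vehicle and positive-control wells. The drug sensitivity score (DSS2) is a partial area under the fitted logistic dose–response curve divided by the log of its upper asymptote, computed in BREEZE; higher means more sensitive.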

Another experiment deals with CAF#3 (primary prostate cancer-associated fibroblasts of myCAF-like type). The procedure, abridged:
as §1

In another experiment the test system is CAF#5 (primary prostate cancer-associated fibroblasts of myCAF-like type). In short, it runs like this:
as §1

The test system of another experiment is CAF#6 (primary prostate cancer-associated fibroblasts of iCAF-like type). In short, it runs like this:
as §1

The test system of another experiment is WPMY-1. The procedure, abridged: as §1
Another experiment deals with CAF#1 (primary prostate cancer-associated fibroblasts of myCAF-like type). In short, it runs like this:
as §1

Another experiment has as its system CAF#2 (primary prostate cancer-associated fibroblasts of iCAF-like type). In short, it runs like this: as §1
The subject of the next experiment is PF179T. In short, it runs like this:
as §1

In the next experiment the test system is LNCAP. The procedure, abridged:
as §1

The test system of the next experiment is CAF#4 (primary prostate cancer-associated fibroblasts of iCAF-like type). In short, it runs like this:
as §1

The next experiment has as its system 22Rv1. The procedure, abridged:
as §1

The structures appear in SMILES notation.

As for `C=C1C[C@@H]2[C@H](CC[C@]3(C)C(=O)CC[C@@H]23)[C@@]2(C)C=CC(=O)C=C12` [Exemestane] (tested concentration range 1-10000 nM), the drug sensitivity score with CAF#7 was found to be 0; in the experiment with CAF#3 it was 0.7; with CAF#5, 0; in the experiment on CAF#6, 0; in the experiment with WPMY-1 it was 0; in the experiment on CAF#1, 0. The drug sensitivity score is 0 in the experiment with CAF#2; 0 in the experiment with PF179T; 2.5 in the experiment with LNCAP; 0 with CAF#4; 0 in the experiment with 22Rv1.
Consider `CCn1c(=O)c(-c2ccc(Cl)cc2Cl)cc2cnc(Nc3ccc(N4CCNCC4)c(F)c3)nc21` [FRAX486] (tested concentration range 0.5-5000 nM), for which the drug sensitivity score with CAF#7 amounted to 8.9; with CAF#3, 9.1; in the experiment with CAF#5 it was 11.4; in the experiment with CAF#6 it was 9; in the experiment with WPMY-1, 8.6; in the experiment with CAF#1, 12.2. The drug sensitivity score with CAF#2 is 14.7; with PF179T, 12.4; in the experiment with LNCAP, 6.3; with CAF#4, 9.7; in the experiment with 22Rv1, 1.1.
As for `Cc1cnc(Nc2ccc(OCCN3CCCC3)cc2)nc1Nc1cccc(S(=O)(=O)NC(C)(C)C)c1` [Fedratinib] (tested concentration range 1-10000 nM), the drug sensitivity score was 9.6 in the experiment with CAF#7; 9.7 in the experiment with CAF#3; 5.2 with CAF#5; 8 with CAF#6; 7.2 in the experiment with WPMY-1; 3.9 in the experiment on CAF#1. The drug sensitivity score was found to be 5 with CAF#2; 7.7 with PF179T; 8 in the experiment on LNCAP; 4.6 in the experiment on CAF#4; 9.5 with 22Rv1.
Take `CON(C)C(=O)N1N=C(c2cc(F)ccc2F)S[C@@]1(CCCN)c1ccccc1` [Filanesib] (tested concentration range 0.1-1000 nM): the drug sensitivity score in the experiment with CAF#7 came to 2.6; in the experiment with CAF#3 it was 3.2; in the experiment with CAF#5, 3.9; with CAF#6, 2.6; in the experiment with WPMY-1, 22; with CAF#1, 0.2. For the same molecule, the drug sensitivity score was found to be 17.7 in the experiment on CAF#2; 13 in the experiment on PF179T; 29.5 in the experiment on LNCAP; 6 in the experiment with CAF#4; 21.3 with 22Rv1.
Regarding `O=C(Nc1nc2cccc(-c3ccc(CN4CCS(=O)(=O)CC4)cc3)n2n1)C1CC1` [Filgotinib] (tested concentration range 1-10000 nM), the drug sensitivity score was 0.6 with CAF#7; 1.7 in the experiment with CAF#3; 1.9 with CAF#5; 0.1 with CAF#6; 2.1 with WPMY-1; 2.1 in the experiment on CAF#1. The drug sensitivity score in the experiment on CAF#2 is 2.3; with PF179T, 0.9; with LNCAP, 3.8; in the experiment with CAF#4 it was 0; with 22Rv1, 2.5.
Consider `CC(C)(C)NC(=O)[C@H]1CC[C@H]2[C@@H]3CC[C@H]4NC(=O)C=C[C@]4(C)[C@H]3CC[C@]12C` [Finasteride] (tested concentration range 1-10000 nM), for which the drug sensitivity score with CAF#7 is 0; with CAF#3, 0.5; in the experiment on CAF#5 it was 0; with CAF#6 it was 0; with WPMY-1, 0; with CAF#1, 0. For the same molecule, the drug sensitivity score in the experiment with CAF#2 was 0; with PF179T, 0; in the experiment on LNCAP, 2.8; in the experiment with CAF#4 it was 0; in the experiment on 22Rv1, 0.
`CCCCCCCCc1ccc(CCC(N)(CO)CO)cc1` [Fingolimod] (tested concentration range 1-10000 nM): the drug sensitivity score worked out at 6.3 in the experiment on CAF#7; 5.2 in the experiment with CAF#3; 6.8 in the experiment with CAF#5; 5.9 in the experiment on CAF#6; 6.7 in the experiment on WPMY-1; 5.4 in the experiment with CAF#1. Also, the drug sensitivity score in the experiment with CAF#2 came to 5.3; with PF179T, 5.1; in the experiment on LNCAP it was 7.9; in the experiment with CAF#4, 6; in the experiment on 22Rv1 it was 7.
For `O=c1[nH]c(=O)n([C@H]2C[C@H](O)[C@@H](CO)O2)cc1F` [Floxuridine] (tested concentration range 1-10000 nM), the drug sensitivity score in the experiment on CAF#7 is 3; in the experiment on CAF#3, 1.1; in the experiment with CAF#5 it was 1.4; in the experiment on CAF#6 it was 2.3; in the experiment with WPMY-1, 24; in the experiment with CAF#1, 1.8. Moreover, the drug sensitivity score in the experiment with CAF#2 turned out to be 4.3; in the experiment with PF179T, 5.1; with LNCAP it was 15.2; in the experiment on CAF#4, 2; in the experiment with 22Rv1, 6.
Regarding `Nc1nc(F)nc2c1ncn2[C@@H]1O[C@H](CO)[C@@H](O)[C@@H]1O` [Fludarabine] (tested concentration range 1-10000 nM), the drug sensitivity score in the experiment on CAF#7 is 2.1; with CAF#3, 0; in the experiment on CAF#5, 2.2; with CAF#6, 0.1; in the experiment on WPMY-1, 0.7; with CAF#1, 1.5. For the same molecule, the drug sensitivity score with CAF#2 came out at 0.7; with PF179T, 4.3; with LNCAP it was 5.5; in the experiment with CAF#4, 0.3; with 22Rv1, 0.
For the molecule `O=c1[nH]cc(F)c(=O)[nH]1` [Fluorouracil] (tested concentration range 1-10000 nM), the drug sensitivity score came to 2.1 with CAF#7; 0.5 in the experiment on CAF#3; 2.9 in the experiment on CAF#5; 1.6 in the experiment with CAF#6; 0.2 in the experiment with WPMY-1; 2.6 in the experiment on CAF#1. Besides, the drug sensitivity score in the experiment on CAF#2 was found to be 3.6; in the experiment on PF179T, 3.4; in the experiment on LNCAP it was 4.6; with CAF#4 it was 2; with 22Rv1, 2.4.
Turning to `CC(C)C(=O)Nc1ccc([N+](=O)[O-])c(C(F)(F)F)c1` [Flutamide] (tested concentration range 1-10000 nM), the drug sensitivity score in the experiment on CAF#7 came to 0; in the experiment with CAF#3, 0; in the experiment with CAF#5 it was 0.5; in the experiment with CAF#6, 0; with WPMY-1, 0; with CAF#1 it was 0. The drug sensitivity score in the experiment with CAF#2 is 2.8; in the experiment with PF179T it was 0; in the experiment with LNCAP, 1.1; in the experiment on CAF#4, 4.8; in the experiment with 22Rv1 it was 0.6.
For `COc1cc2c(Oc3ccc(NC(=O)C4(C(=O)Nc5ccc(F)cc5)CC4)cc3F)ccnc2cc1OCCCN1CCOCC1` [Foretinib] (tested concentration range 0.1-1000 nM), the drug sensitivity score is 7 with CAF#7; 7.9 with CAF#3; 6.7 in the experiment on CAF#5; 5.2 in the experiment on CAF#6; 7.9 with WPMY-1; 6.8 in the experiment with CAF#1. Besides, the drug sensitivity score was found to be 10.3 in the experiment on CAF#2; 6.8 with PF179T; 5.6 in the experiment with LNCAP; 6.9 with CAF#4; 3.4 with 22Rv1.
